Measured values: patent publication US7858635B2 (priority 2005, dated 2010)
Like-named read-outs stand apart in the source and are kept apart here.

Tests used:
M1 muscarinic receptor = target: T1, M1 muscarinic receptor (Homo sapiens, UniProt P11229); assay: Functional mobilization of intracellular calcium (FLIPR, Fluo-3), M1-CHO cells; format: cell-based; details: for Emax: 100% efficacy is the maximum response obtained with the Carbachol control, read-out: M1 Efficacy
T1 construct: expressed in transfected cells; host or cells: CHO cells (M1-CHO, under zeocin and G418 selection)
T1 sequence (P11229 1-460): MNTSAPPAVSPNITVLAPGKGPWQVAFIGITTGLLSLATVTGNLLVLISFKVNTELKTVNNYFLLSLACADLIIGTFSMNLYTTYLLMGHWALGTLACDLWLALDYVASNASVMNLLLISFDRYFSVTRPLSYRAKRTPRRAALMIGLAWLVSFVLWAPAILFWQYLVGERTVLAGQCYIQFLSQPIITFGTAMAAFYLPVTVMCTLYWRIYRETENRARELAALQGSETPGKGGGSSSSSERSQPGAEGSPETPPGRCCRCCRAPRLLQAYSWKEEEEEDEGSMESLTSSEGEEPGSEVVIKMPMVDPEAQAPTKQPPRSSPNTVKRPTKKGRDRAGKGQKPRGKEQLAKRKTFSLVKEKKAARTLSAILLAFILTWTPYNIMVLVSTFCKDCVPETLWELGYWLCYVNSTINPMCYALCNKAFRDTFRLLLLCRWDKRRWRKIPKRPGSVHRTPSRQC
Outline: (§1)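 Intracellular calcium was tracked by fluorescence (488/540 nm) over 60 sec after compound addition to dye-loaded CHO cells expressing the receptor. Inhibitory activity used a 15 min pre-incubation before carbachol at the subtype EC80.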

M4 muscarinic receptor = target: T2, M4 muscarinic receptor (Homo sapiens, UniProt P08173); assay: Functional mobilization of intracellular calcium (FLIPR, Fluo-3), M4-CHO cells; format: cell-based; details: for Emax: 100% efficacy is the maximum response obtained with the Carbachol control, read-out: M4 Efficacy
T2 construct: expressed in transfected cells; host or cells: CHO cells (M4-CHO, under puromycin, zeocin and blasticidin selection)
T2 sequence (P08173 1-479): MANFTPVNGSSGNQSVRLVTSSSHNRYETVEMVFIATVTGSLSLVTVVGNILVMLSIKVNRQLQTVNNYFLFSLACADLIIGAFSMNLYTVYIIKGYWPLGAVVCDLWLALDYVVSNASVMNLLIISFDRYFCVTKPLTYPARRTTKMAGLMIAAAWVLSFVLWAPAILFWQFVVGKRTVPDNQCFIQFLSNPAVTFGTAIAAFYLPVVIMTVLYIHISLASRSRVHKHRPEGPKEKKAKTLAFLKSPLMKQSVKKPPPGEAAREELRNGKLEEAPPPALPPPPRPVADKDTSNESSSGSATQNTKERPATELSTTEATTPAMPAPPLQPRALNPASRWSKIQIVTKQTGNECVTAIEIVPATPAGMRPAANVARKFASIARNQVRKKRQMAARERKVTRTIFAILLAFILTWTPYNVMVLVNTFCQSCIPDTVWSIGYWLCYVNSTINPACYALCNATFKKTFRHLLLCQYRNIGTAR
Outline: as §1

[1] = compound nos. 1-454, M1-CHO cells, calcium mobilization
[2] = compound nos. 1-454, M4-CHO cells, calcium mobilization

Structure (SMILES) | Emax (M1 muscarinic receptor; compound nos. 1-454) [%] | M1 Activity (M1 muscarinic receptor; [1]) | Emax (M4 muscarinic receptor; compound nos. 1-454) [%] | M4 Activity (M4 muscarinic receptor; [2]) | Emax (M1 muscarinic receptor; compound nos. 455-509) [%] | M1 Activity (M1 muscarinic receptor; compounds 455-509) | Emax (M4 muscarinic receptor; compound nos. 455-509) [%] | M4 Activity (M4 muscarinic receptor; compounds 455-509) | M1 Activity (M1 muscarinic receptor; compound nos. 1-454) | M4 Activity (M4 muscarinic receptor; compound nos. 1-454)
c1ccc2c(c1)NCC21CCN(CC2CC3CCC2C3)CC1 (centres unmarked) [compound 110] | < 65 | +++ (activity was measured to be less than or equal to 0.7 μM) | < 55 | ++ (activity was measured to be between 0.1 μM and 4.0 μM) |  |  |  |  |  | 
CC(C)OC(=O)N1C2CCC1CC(N1CCC3(CC1)CN(C(=O)O[C@@H]1CCOC1)c1ccc(F)cc13)C2 (some centres unmarked) [compound 361] | < 65 | ++ (activity was measured to be between 0.7 μM and 3.0 μM) | < 55 | + (activity was measured to be greater than or equal to 4.0 μM) |  |  |  |  |  | 
C#CCCOC(=O)N1CCC(N2CCC3(CC2)CN(C(=O)N(C)C)c2ccc(F)cc23)CC1 [compound 127] | 65 to 85 | +++ (activity was measured to be less than or equal to 0.7 μM) | < 55 | ++ (activity was measured to be between 0.1 μM and 4.0 μM) |  |  |  |  |  | 
Fc1ccc2c(c1)C1(CCN(C[C@H]3C[C@H]4CC[C@H]3O4)CC1)CN2 [compound 300] | 65 to 85 | ++ (activity was measured to be between 0.7 μM and 3.0 μM) | < 55 | + (activity was measured to be greater than or equal to 4.0 μM) |  |  |  |  |  | 
CCCOC(=O)N1C2CCC1CC(N1CCC3(CC1)CN(C(=O)OC1CCC1)c1ccc(F)cc13)C2 (centres unmarked) [compound 329] | 65 to 85 | +++ (activity was measured to be less than or equal to 0.7 μM) | < 55 | + (activity was measured to be greater than or equal to 4.0 μM) |  |  |  |  |  | 
CCCOC(=O)N1CC2(CCN(C3CCN(C(=O)OCC)CC3)CC2)c2cc(F)ccc21 [compound 114] | 65 to 85 | ++ (activity was measured to be between 0.7 μM and 3.0 μM) | < 55 | + (activity was measured to be greater than or equal to 4.0 μM) |  |  |  |  |  | 
CCOC(=O)N1C2CCC1CC(N1CCC3(CC1)CN(S(=O)(=O)c1ccc(F)cc1)c1ccc(F)cc13)C2 (centres unmarked) [compound 40] | 65 to 85 | +++ (activity was measured to be less than or equal to 0.7 μM) | > 70 | ++ (activity was measured to be between 0.1 μM and 4.0 μM) |  |  |  |  |  | 
CCOC(=O)N1CCC(N2CCC3(CC2)CN(C(=O)c2ccc(OC(F)(F)F)cc2)c2ccc(F)cc23)CC1 [compound 66] | > 85 | +++ (activity was measured to be less than or equal to 0.7 μM) | > 70 | +++ (activity was measured to be less than or equal to 0.1 μM) |  |  |  |  |  | 
Clc1ccc2c(c1)C1(CCN(C3CC4CCC(C4)C3)CC1)CN2 (centres unmarked) [compound 85] | 65 to 85 | +++ (activity was measured to be less than or equal to 0.7 μM) | 55 to 70 | ++ (activity was measured to be between 0.1 μM and 4.0 μM) |  |  |  |  |  | 
CCCOC(=O)N1C2CCC1CC(N1CCC3(CC1)CN(C(=O)C1CCC1)c1ccc(F)cc13)C2 (centres unmarked) [compound 302] | < 65 | + (activity was measured to be greater than or equal to 3.0 μM) | < 55 | + (activity was measured to be greater than or equal to 4.0 μM) |  |  |  |  |  | 
CC(=O)NC1CC2(CCN(C3CCCCCC3)CC2)c2ccccc21 (centres unmarked) [compound 159] | > 85 | ++ (activity was measured to be between 0.7 μM and 3.0 μM) | > 70 | + (activity was measured to be greater than or equal to 4.0 μM) |  |  |  |  |  | 
CCCCOC(=O)N1C2CCC1CC(N1CCC3(CC1)COc1ccc(F)cc13)C2 (centres unmarked) [compound 286] | < 65 | ++ (activity was measured to be between 0.7 μM and 3.0 μM) | < 55 | + (activity was measured to be greater than or equal to 4.0 μM) |  |  |  |  |  | 
Clc1ccc2c(c1)C1(CCN(C3CCOCC3)CC1)CO2 [compound 257] | > 85 | + (activity was measured to be greater than or equal to 3.0 μM) | < 55 | + (activity was measured to be greater than or equal to 4.0 μM) |  |  |  |  |  | 
CCc1nsc(N2CCC(N3CCC4(CCN(C(C)=O)c5ccccc54)CC3)CC2)n1 [compound 489] |  |  |  |  | > 100 | +++ (activity was measured to be less than or equal to 2.0 μM) | 25 to 100 | ++ (activity was measured to be between 2.0 μM and 5.0 μM) |  | 
CC(=O)N(C)[C@H]1CC2(CCN(C3CCN(c4nc(C)ns4)CC3)CC2)c2ccccc21 [compound 479] |  |  |  |  | > 100 | +++ (activity was measured to be less than or equal to 2.0 μM) | 25 to 100 | ++ (activity was measured to be between 2.0 μM and 5.0 μM) |  | 
CCOC(=O)N1C2CCC1CC(N1CCC3(CC1)CN(C(=O)Nc1c(C)noc1C)c1ccc(F)cc13)C2 (centres unmarked) [compound 83] | < 65 | +++ (activity was measured to be less than or equal to 0.7 μM) | < 55 | + (activity was measured to be greater than or equal to 4.0 μM) |  |  |  |  |  | 
CCCOC(=O)N1CCCC(N2CCC3(CC2)CN(C(C)=O)c2ccc(F)cc23)CC1 (centres unmarked) [compound 266] | < 65 | + (activity was measured to be greater than or equal to 3.0 μM) | < 55 | + (activity was measured to be greater than or equal to 4.0 μM) |  |  |  |  |  | 
Clc1ccc2c(c1)C1(CCN(C3CCCCC3)CC1)CO2 [compound 5] | 65 to 85 | +++ (activity was measured to be less than or equal to 0.7 μM) | > 70 | +++ (activity was measured to be less than or equal to 0.1 μM) |  |  |  |  |  | 
CCCOC(=O)N1C2CCC1CC(N1CCC3(CC1)CN(C(=O)OC)c1ccc(F)cc13)C2 (centres unmarked) [compound 386] | < 65 |  | < 55 |  |  |  |  |  | ++ (activity was measured to be between 0.7 μM and 3.0 μM) | ++ (activity was measured to be between 0.1 μM and 4.0 μM)
COCCOC(=O)N1C2CCC1CC(N1CCC3(CCc4ccccc43)CC1)C2 (centres unmarked) [compound 95] | 65 to 85 | +++ (activity was measured to be less than or equal to 0.7 μM) | < 55 | ++ (activity was measured to be between 0.1 μM and 4.0 μM) |  |  |  |  |  | 
COCCOC(=O)N1CCC(CN2CCC3(CC2)CN(C(C)=O)c2ccc(C)cc23)CC1 [compound 419] | < 65 |  | < 55 |  |  |  |  |  | + (activity was measured to be greater than or equal to 3.0 μM) | + (activity was measured to be greater than or equal to 4.0 μM)
CC(=O)N[C@H]1CC2(CCN(C3CCC(C)CC3)CC2)c2ccccc21 (some centres unmarked) [compound 280] | 65 to 85 | + (activity was measured to be greater than or equal to 3.0 μM) | 55 to 70 | + (activity was measured to be greater than or equal to 4.0 μM) |  |  |  |  |  | 
CCOC(=O)N1CCC(N2CCC3(CC2)CN(C(C)=O)c2ccc(C4CC4)cc23)CC1 [compound 245] | < 65 | ++ (activity was measured to be between 0.7 μM and 3.0 μM) | > 70 | ++ (activity was measured to be between 0.1 μM and 4.0 μM) |  |  |  |  |  | 
C#CCOC(=O)N1CCC(CN2CCC3(CC2)C[C@H](NC(C)=O)c2ccccc23)CC1 [compound 364] | > 85 | +++ (activity was measured to be less than or equal to 0.7 μM) | < 55 | + (activity was measured to be greater than or equal to 4.0 μM) |  |  |  |  |  | 
CCOC(=O)N1C2CCC1CC(N1CCC3(CC1)CNc1ccccc13)C2 (centres unmarked) [compound 153] | > 85 | +++ (activity was measured to be less than or equal to 0.7 μM) | > 70 | +++ (activity was measured to be less than or equal to 0.1 μM) |  |  |  |  |  | 
CC(=O)N1CC2(CCN(C3CCN(c4cnc(C)c(C)n4)CC3)CC2)c2ccccc21 [compound 471] |  |  |  |  | > 100 | ++ (activity was measured to be between 2.0 μM and 5.0 μM) | 25 to 100 | ++ (activity was measured to be between 2.0 μM and 5.0 μM) |  | 
